Reference: ChEMBL document CHEMBL1201862, “PubChem BioAssay data set” (2004)
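Cultured in 96-well plates, cells were exposed to test compound for 48 hours across five concentrations. GI50 is the concentration that inhibits growth by half.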 The source made the active and inactive calls. Rule as the data show it: active = GI50 up to about 1.1 µM and inactive = higher.

What was measured:
Assay in all cases: NCI-60 cell line screen, 48 h
A549 = tested on: A549
786-0 = tested on: 786-0
NCI-H23 = tested on: NCI-H23
OVCAR-8 = tested on: OVCAR-8
RXF 393 = tested on: RXF 393
COLO 205 = tested on: COLO 205
OVCAR-4 = tested on: OVCAR-4
CCRF-CEM = tested on: CCRF-CEM
OVCAR-3 = tested on: OVCAR-3
MOLT-4 = tested on: MOLT-4
TK-10 = tested on: TK-10
UACC-62 = tested on: UACC-62
HOP-62 = tested on: HOP-62
SW-620 = tested on: SW-620
MDA-MB-435 = tested on: MDA-MB-435
A498 = tested on: A498
DU-145 = tested on: DU-145
UACC-257 = tested on: UACC-257
SN12C = tested on: SN12C
Hs-578T = tested on: Hs-578T

Measured: GI50

N#CC1C(=O)NC23CCCCC2C1c1ccccc1O3 (stereo not drawn)
inactive: A549 > 100 µM | 786-0 > 100 µM | NCI-H23 > 100 µM | OVCAR-8 > 100 µM | RXF 393 > 100 µM | COLO 205 > 100 µM | OVCAR-4 > 100 µM | CCRF-CEM 74.8 µM | OVCAR-3 > 100 µM | MOLT-4 > 100 µM | TK-10 > 100 µM | UACC-62 > 100 µM | HOP-62 > 100 µM | SW-620 > 100 µM | MDA-MB-435 > 100 µM | A498 > 100 µM | DU-145 > 100 µM | UACC-257 > 100 µM

O=C1CCN2c3ccccc3[C@H]3Cc4cccc(c4[C@@H]2C3)CCO1
inactive: A549 33.9 µM | 786-0 41.8 µM | NCI-H23 35.3 µM | OVCAR-8 31.7 µM | SN12C 16.3 µM | RXF 393 47.4 µM | COLO 205 33.5 µM | OVCAR-4 57.1 µM | CCRF-CEM 28.8 µM | OVCAR-3 26.5 µM | MOLT-4 20.3 µM | TK-10 65.6 µM | UACC-62 43.5 µM | HOP-62 56.2 µM | SW-620 35.3 µM | MDA-MB-435 40.4 µM | A498 56.5 µM | DU-145 68.4 µM | UACC-257 29.4 µM

O=C1NC(=S)N/C1=C/c1c(-c2ccccc2)[nH]c2ccccc12
inactive: 786-0 14 µM | NCI-H23 14.1 µM | OVCAR-8 14.4 µM | SN12C 18.5 µM | RXF 393 15.3 µM | COLO 205 17.9 µM | OVCAR-4 16.1 µM | OVCAR-3 16.1 µM | Hs-578T 16.6 µM | MOLT-4 12.4 µM | TK-10 15.8 µM | UACC-62 11.7 µM | HOP-62 15.5 µM | SW-620 17.1 µM | MDA-MB-435 13.7 µM | A498 11.4 µM | UACC-257 15.6 µM

[N-]=[N+]=NC1CC(n2cc(COCC(F)(F)F)c(=O)[nH]c2=O)OC1CO (stereo not drawn)
inactive: A549 > 100 µM | 786-0 > 100 µM | NCI-H23 > 100 µM | OVCAR-8 > 100 µM | SN12C > 100 µM | RXF 393 > 100 µM | COLO 205 > 100 µM | OVCAR-4 > 100 µM | CCRF-CEM > 100 µM | OVCAR-3 > 100 µM | MOLT-4 > 100 µM | TK-10 > 100 µM | UACC-62 > 100 µM | HOP-62 > 100 µM | SW-620 > 100 µM | A498 > 100 µM | UACC-257 > 100 µM

O=C(NCCCCCCNC(=O)c1cccc2ccccc12)c1cccc2ccccc12
inactive: A549 35.4 µM | 786-0 23.7 µM | NCI-H23 31.5 µM | OVCAR-8 18.7 µM | SN12C 25.7 µM | RXF 393 8.51 µM | COLO 205 1.85 µM | OVCAR-4 14.4 µM | CCRF-CEM > 100 µM | OVCAR-3 28.9 µM | MOLT-4 > 100 µM | TK-10 14.9 µM | UACC-62 > 100 µM | HOP-62 20.5 µM | SW-620 > 100 µM | A498 24.3 µM | UACC-257 74.3 µM

COc1ccc(/C=C2/C[N+](C)(C)C/C(=C/c3ccc(OC)cc3)C2=O)cc1
inactive: A549 > 76.4 µM | 786-0 34.7 µM | NCI-H23 56 µM | OVCAR-8 31.9 µM | SN12C 36.1 µM | RXF 393 > 100 µM | COLO 205 16.9 µM | OVCAR-4 36 µM | CCRF-CEM 18.5 µM | OVCAR-3 30 µM | MOLT-4 16.7 µM | TK-10 > 100 µM | UACC-62 16.3 µM | HOP-62 > 100 µM | SW-620 42.7 µM | A498 68.4 µM | UACC-257 29.4 µM

CCc1ccccc1NC(=O)C(=O)CC(=O)c1sc(Nc2ccccc2)nc1C
inactive: A549 > 100 µM | 786-0 > 100 µM | NCI-H23 > 100 µM | OVCAR-8 > 100 µM | SN12C > 100 µM | RXF 393 > 100 µM | COLO 205 > 100 µM | OVCAR-4 > 100 µM | CCRF-CEM 32.1 µM | OVCAR-3 80.5 µM | MOLT-4 48.6 µM | TK-10 > 100 µM | UACC-62 99.5 µM | HOP-62 > 100 µM | SW-620 > 100 µM | A498 > 100 µM | UACC-257 > 100 µM

Cc1cc(Br)c(O)c(-c2cscn2)c1
inactive: A549 20.2 µM | 786-0 2.43 µM | NCI-H23 14.4 µM | OVCAR-8 10.9 µM | SN12C 10.5 µM | COLO 205 18 µM | OVCAR-4 14.6 µM | CCRF-CEM 6.55 µM | OVCAR-3 52.5 µM | Hs-578T 19.3 µM | TK-10 22.4 µM | UACC-62 12.7 µM | HOP-62 22.5 µM | SW-620 12.3 µM | MDA-MB-435 20.7 µM | A498 23.7 µM | UACC-257 > 10 µM

Cc1ccc(C2=C(C#N)C(=O)N3CCN=C3S2)cc1
inactive: A549 > 100 µM | 786-0 > 100 µM | NCI-H23 > 100 µM | OVCAR-8 > 100 µM | SN12C > 100 µM | RXF 393 > 100 µM | COLO 205 > 100 µM | OVCAR-4 > 100 µM | CCRF-CEM > 100 µM | OVCAR-3 > 100 µM | MOLT-4 > 100 µM | TK-10 > 100 µM | UACC-62 > 100 µM | SW-620 > 100 µM | MDA-MB-435 > 100 µM | DU-145 > 100 µM | UACC-257 > 100 µM

COC(=O)C1=CC2C(=O)c3ccccc3C1(c1ccccc1)N2C1CCCCC1 (stereo not drawn)
inactive: A549 20 µM | 786-0 > 100 µM | NCI-H23 18.7 µM | OVCAR-8 27 µM | SN12C 24 µM | RXF 393 7.87 µM | COLO 205 13.1 µM | OVCAR-4 17.1 µM | CCRF-CEM 15.1 µM | OVCAR-3 23.6 µM | MOLT-4 7.55 µM | TK-10 30.1 µM | HOP-62 16.7 µM | SW-620 27.2 µM | MDA-MB-435 16.9 µM | A498 26.7 µM | DU-145 27 µM | UACC-257 12.4 µM

O=c1c2ccccc2n2c(S)nnc2n1-c1ccccc1
inactive: A549 > 100 µM | 786-0 > 100 µM | NCI-H23 > 100 µM | OVCAR-8 > 100 µM | SN12C > 100 µM | RXF 393 > 100 µM | COLO 205 > 100 µM | OVCAR-4 > 100 µM | CCRF-CEM > 100 µM | OVCAR-3 > 100 µM | MOLT-4 > 100 µM | TK-10 > 100 µM | UACC-62 > 100 µM | HOP-62 > 100 µM | SW-620 > 100 µM | MDA-MB-435 > 100 µM | A498 > 100 µM | DU-145 > 100 µM | UACC-257 > 100 µM
